According to ChEMBL document CHEMBL6109139, “Rational Design of the First Dual Agonist at Trace Amine-Associated Receptor 1 and 5-HT2C Receptors Based on Binding Pocket Similarity for the Treatment of Schizophrenia and Alzheimer's Disease-Related Psychosis” (J Med Chem, 2025):
Activity calls are given as the source filed them. The calls are words filed in the database; no cut-off is given here.

What was measured:
[1] = Metabolic stability in mouse liver microsomes assessed as intrinsic clearance at 1 uM incubated for 60 mins by LC-MS/MS analysis; assay type: ADME, Microsome; conditions: read-out: CLH
[2] = Toxicity in female Sprague-Dawley rat assessed as suppression of food consumption at 7.5 mg/kg, po administered once daily for 4 weeks and measured weekly twice; assay type: organism-based; conditions: in vivo, 672 h
[3] = Toxicity in female Sprague-Dawley rat assessed as change in prolactin level at 2.5 to 7.5 mg/kg, po administered once daily for 4 weeks and measured after 4 weeks; assay type: organism-based; conditions: in vivo, 1344 h, dose 2.5-7.5 mg/kg, time 8 weeks
[4] = Toxicity in female Sprague-Dawley rat assessed as corneal epithelial degeneration at 7.5 mg/kg, po administered once daily for 4 weeks; assay type: organism-based; conditions: in vivo, 672 h
[5] = Toxicity in male Sprague-Dawley rat assessed as slow respiration at 7.5 mg/kg, po administered once daily for 4 weeks and measured after 4 weeks; assay type: organism-based; conditions: in vivo, 1344 h, time 8 weeks
[6] = Toxicity in male Beagle dog assessed as minimal decrease activity at 2.5 mg/kg, IG administered once daily for 4 weeks and measured after 4 weeks; assay type: organism-based, Canis lupus familiaris; conditions: in vivo, po, 1344 h, time 8 weeks
[7] = Toxicity in Sprague-Dawley rat assessed as dyskinesia 2.5 to 7.5 mg/kg, po administered once daily for 4 weeks; assay type: organism-based; conditions: in vivo, 672 h, dose 2.5-7.5 mg/kg
[8] = target: Vasopressin V1a receptor (Homo sapiens) (UniProt P37288); assay: Binding affinity to V1a receptor (unknown origin) at 10 uM by radioligand binding assay relative to control
Chain of Vasopressin V1a receptor (Homo sapiens) (P37288 whole entry, looked up): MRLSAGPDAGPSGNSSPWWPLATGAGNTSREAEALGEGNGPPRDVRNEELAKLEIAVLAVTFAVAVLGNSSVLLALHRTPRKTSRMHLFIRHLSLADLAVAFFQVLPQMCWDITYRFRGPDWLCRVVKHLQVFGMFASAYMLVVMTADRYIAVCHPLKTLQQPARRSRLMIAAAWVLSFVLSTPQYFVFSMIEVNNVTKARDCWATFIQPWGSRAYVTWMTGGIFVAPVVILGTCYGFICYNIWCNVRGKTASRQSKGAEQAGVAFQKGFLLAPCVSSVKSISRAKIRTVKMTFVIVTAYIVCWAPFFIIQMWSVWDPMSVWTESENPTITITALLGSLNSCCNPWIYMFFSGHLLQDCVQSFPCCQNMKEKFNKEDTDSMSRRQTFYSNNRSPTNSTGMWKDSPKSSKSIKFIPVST

[9] = Toxicity in female Beagle dog assessed as somnolence at 2.5 mg/kg, IG administered once daily for 4 weeks and measured after 4 weeks; assay type: organism-based, Canis lupus familiaris; conditions: in vivo, po, 1344 h, time 8 weeks
Cytochrome P450 2C19 = Cytochrome P450 2C19 (Homo sapiens, UniProt P33261); assay: Inhibition of CYP2C19 in human liver microsomes in presence of NADPH by LC-MS/MS analysis; assay type: ADME, Microsome
Chain of Cytochrome P450 2C19 (P33261 whole entry): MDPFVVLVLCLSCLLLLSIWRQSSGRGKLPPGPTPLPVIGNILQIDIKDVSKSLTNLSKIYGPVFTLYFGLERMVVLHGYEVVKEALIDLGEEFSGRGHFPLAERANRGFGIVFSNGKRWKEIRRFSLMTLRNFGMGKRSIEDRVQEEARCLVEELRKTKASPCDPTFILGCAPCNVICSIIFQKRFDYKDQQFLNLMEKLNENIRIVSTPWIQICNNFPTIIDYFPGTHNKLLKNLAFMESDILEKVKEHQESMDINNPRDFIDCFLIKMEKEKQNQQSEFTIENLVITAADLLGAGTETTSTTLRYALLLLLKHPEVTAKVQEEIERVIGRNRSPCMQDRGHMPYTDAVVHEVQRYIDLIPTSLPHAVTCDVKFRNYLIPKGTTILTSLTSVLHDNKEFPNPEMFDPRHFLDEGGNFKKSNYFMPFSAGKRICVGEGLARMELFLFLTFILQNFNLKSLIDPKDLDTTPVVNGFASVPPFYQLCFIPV

[10] = target: Muscarinic acetylcholine receptor M3 (Homo sapiens) (UniProt P20309); assay: Binding affinity to M3 receptor (unknown origin) at 10 uM by radioligand binding assay relative to control
Chain of Muscarinic acetylcholine receptor M3 (Homo sapiens) (P20309 whole entry, looked up): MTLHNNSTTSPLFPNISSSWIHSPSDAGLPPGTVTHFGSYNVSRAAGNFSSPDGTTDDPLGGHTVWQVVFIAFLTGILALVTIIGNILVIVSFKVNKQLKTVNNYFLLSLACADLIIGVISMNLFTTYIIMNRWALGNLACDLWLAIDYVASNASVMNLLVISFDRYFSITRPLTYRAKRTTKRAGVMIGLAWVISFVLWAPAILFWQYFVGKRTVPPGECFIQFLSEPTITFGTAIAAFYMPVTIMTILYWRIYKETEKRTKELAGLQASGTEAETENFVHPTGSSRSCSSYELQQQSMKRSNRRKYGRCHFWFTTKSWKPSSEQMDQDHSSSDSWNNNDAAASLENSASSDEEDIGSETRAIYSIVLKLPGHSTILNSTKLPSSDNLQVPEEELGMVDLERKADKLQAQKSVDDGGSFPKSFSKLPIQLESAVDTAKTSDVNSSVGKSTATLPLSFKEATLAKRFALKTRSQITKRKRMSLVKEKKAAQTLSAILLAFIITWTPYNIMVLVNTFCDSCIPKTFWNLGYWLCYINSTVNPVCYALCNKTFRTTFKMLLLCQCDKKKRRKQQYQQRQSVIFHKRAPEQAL

[11] = Drug concentration in male Sprague-Dawley rat brain at 5 mg/kg, IG measured after 6 hrs by LC-MS/MS analysis; assay type: ADME, organism-based; conditions: in vivo, po
[12] = target: 5-hydroxytryptamine receptor 7 (Homo sapiens, UniProt P34969); assay: Agonist activity at recombinant human 5-HT7 expressed in HEK293 cells by measuring maximum efficacy at 2 uM by FLIPR calcium assay relative to control; assay type: functional, cell-based; conditions: filed as agonist
Chain of 5-hydroxytryptamine receptor 7 (P34969 whole entry): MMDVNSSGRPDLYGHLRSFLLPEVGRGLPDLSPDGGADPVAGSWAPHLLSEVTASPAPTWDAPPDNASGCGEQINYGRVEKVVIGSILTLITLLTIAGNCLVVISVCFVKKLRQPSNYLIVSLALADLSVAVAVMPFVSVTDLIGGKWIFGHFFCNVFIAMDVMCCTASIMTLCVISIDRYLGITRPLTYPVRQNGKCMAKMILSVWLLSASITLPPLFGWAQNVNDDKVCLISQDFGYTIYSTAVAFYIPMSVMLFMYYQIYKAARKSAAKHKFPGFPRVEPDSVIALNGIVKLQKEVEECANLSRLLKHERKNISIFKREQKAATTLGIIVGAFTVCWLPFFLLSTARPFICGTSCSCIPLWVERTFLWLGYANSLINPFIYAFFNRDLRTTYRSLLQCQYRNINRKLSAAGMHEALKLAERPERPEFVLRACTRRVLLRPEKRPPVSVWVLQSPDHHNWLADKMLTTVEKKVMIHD

[13] = Toxicity in female Sprague-Dawley rat assessed as irritability at 2.5 mg/kg, po administered once daily for 4 weeks; assay type: organism-based; conditions: in vivo, 672 h
[14] = Toxicity in Sprague-Dawley rat assessed as stereotypy 2.5 to 7.5 mg/kg, po administered once daily for 4 weeks; assay type: organism-based; conditions: in vivo, 672 h, dose 2.5-7.5 mg/kg
[15] = target: 5-hydroxytryptamine receptor 2C (Mus musculus, UniProt P34968); assay: Agonist activity at mouse 5-HT2CR; assay type: functional
Chain of 5-hydroxytryptamine receptor 2C (P34968 whole entry): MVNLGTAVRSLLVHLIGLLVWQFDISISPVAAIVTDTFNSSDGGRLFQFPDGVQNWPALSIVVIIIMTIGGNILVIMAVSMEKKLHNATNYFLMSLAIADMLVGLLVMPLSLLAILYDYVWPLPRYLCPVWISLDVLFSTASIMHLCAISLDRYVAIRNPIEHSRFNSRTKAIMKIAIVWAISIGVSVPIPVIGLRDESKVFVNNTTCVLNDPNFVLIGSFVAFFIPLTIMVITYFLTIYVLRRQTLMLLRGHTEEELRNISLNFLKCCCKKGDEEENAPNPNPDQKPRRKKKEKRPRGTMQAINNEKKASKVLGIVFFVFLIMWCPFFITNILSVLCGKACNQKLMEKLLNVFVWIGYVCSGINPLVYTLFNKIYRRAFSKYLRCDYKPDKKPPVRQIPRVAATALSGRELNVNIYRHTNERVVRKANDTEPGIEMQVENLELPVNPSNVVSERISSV

[16] = Toxicity in female Sprague-Dawley rat assessed as slow respiration at 7.5 mg/kg, po administered once daily for 4 weeks and measured after 4 weeks; assay type: organism-based; conditions: in vivo, 1344 h, time 8 weeks
[17] = Toxicity in male Beagle dog assessed as change in urinalysis at 0.75 to 2.5 mg/kg, IG administered once daily for 4 weeks and measured after 4 weeks; assay type: organism-based, Canis lupus familiaris; conditions: in vivo, po, 1344 h, dose 0.75-2.5 mg/kg, time 8 weeks
[18] = Toxicity in male Beagle dog assessed as change in prolactin at 0.75 to 2.5 mg/kg, IG administered once daily for 4 weeks and measured after 4 weeks; assay type: organism-based, Canis lupus familiaris; conditions: in vivo, po, 1344 h, dose 0.75-2.5 mg/kg, time 8 weeks
[19] = target: 5-hydroxytryptamine receptor 2A (Homo sapiens) (UniProt P28223); assay: Binding affinity to 5-HT2A (unknown origin) at 10 uM by radioligand binding assay relative to control
Chain of 5-hydroxytryptamine receptor 2A (Homo sapiens) (P28223 whole entry): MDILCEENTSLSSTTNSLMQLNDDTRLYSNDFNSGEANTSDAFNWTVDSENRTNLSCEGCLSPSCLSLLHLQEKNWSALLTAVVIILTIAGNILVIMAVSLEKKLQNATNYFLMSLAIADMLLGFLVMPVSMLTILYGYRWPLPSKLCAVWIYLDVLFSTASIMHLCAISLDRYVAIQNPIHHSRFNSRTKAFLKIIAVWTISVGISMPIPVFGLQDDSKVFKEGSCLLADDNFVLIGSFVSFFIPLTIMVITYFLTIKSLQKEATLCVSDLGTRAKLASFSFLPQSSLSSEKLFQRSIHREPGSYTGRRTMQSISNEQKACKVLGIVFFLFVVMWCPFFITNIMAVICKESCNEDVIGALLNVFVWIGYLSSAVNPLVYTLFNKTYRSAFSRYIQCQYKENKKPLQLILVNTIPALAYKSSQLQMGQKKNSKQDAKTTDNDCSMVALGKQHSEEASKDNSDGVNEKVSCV

[20] = tested on: 5-hydroxytryptamine receptor 2C (Homo sapiens), P28335 [D134A]; assay: Agonist activity at 5HT2CR D134A mutant (unknown origin) expressed in HEK293 cells assessed as IP1 level by HTRF IP1 competitive binding assay; assay type: cell-based
Chain of 5-hydroxytryptamine receptor 2C (Homo sapiens), P28335 [D134A] (P28335 whole entry D134A): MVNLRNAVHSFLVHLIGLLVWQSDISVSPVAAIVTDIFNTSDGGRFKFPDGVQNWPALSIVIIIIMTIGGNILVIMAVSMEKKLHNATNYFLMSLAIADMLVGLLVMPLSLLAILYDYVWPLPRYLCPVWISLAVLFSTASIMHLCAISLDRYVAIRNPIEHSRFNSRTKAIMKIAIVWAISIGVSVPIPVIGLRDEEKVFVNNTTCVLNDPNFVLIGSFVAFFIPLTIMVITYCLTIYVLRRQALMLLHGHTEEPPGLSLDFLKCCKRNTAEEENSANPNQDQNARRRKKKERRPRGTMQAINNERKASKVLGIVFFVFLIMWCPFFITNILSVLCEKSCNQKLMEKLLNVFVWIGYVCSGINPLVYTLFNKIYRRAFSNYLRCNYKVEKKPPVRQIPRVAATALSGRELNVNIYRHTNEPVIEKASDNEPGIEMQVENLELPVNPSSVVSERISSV

[21] = Toxicity in male Beagle dog assessed as change in blood pressure at 0.75 to 2.5 mg/kg, IG administered once daily for 4 weeks and measured after 4 weeks; assay type: organism-based, Canis lupus familiaris; conditions: in vivo, po, 1344 h, dose 0.75-2.5 mg/kg, time 8 weeks
[22] = Toxicity in female Sprague-Dawley rat assessed as change in urinalysis at 2.5 to 7.5 mg/kg, po administered once daily for 4 weeks and measured after 4 weeks; assay type: organism-based; conditions: in vivo, 1344 h, dose 2.5-7.5 mg/kg, time 8 weeks
[23] = target: Beta-2 adrenergic receptor (Homo sapiens) (UniProt P07550); assay: Binding affinity to beta 2 receptor (unknown origin) at 10 uM by radioligand binding assay relative to control
Chain of Beta-2 adrenergic receptor (Homo sapiens) (P07550 whole entry, looked up): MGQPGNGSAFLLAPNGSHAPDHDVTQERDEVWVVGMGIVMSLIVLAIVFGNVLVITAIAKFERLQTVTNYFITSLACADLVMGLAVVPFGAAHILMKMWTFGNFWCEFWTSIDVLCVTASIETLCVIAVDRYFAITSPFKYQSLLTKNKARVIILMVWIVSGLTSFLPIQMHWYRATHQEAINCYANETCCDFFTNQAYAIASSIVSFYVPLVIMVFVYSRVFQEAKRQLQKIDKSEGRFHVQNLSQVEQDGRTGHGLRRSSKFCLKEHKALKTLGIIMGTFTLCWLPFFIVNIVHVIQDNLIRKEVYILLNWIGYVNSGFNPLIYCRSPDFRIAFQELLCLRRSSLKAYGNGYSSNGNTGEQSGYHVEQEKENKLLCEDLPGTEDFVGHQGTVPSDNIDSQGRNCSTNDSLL

[24] = Toxicity in female Beagle dog assessed as change in hematology at 0.75 to 2.5 mg/kg, IG administered once daily for 4 weeks and measured after 4 weeks; assay type: organism-based, Canis lupus familiaris; conditions: in vivo, po, 1344 h, dose 0.75-2.5 mg/kg, time 8 weeks
[25] = target: Prostaglandin G/H synthase 2 (Homo sapiens) (UniProt P35354); assay: Binding affinity to COX2 (unknown origin) at 10 uM by radioligand binding assay relative to control
Chain of Prostaglandin G/H synthase 2 (Homo sapiens) (P35354 whole entry): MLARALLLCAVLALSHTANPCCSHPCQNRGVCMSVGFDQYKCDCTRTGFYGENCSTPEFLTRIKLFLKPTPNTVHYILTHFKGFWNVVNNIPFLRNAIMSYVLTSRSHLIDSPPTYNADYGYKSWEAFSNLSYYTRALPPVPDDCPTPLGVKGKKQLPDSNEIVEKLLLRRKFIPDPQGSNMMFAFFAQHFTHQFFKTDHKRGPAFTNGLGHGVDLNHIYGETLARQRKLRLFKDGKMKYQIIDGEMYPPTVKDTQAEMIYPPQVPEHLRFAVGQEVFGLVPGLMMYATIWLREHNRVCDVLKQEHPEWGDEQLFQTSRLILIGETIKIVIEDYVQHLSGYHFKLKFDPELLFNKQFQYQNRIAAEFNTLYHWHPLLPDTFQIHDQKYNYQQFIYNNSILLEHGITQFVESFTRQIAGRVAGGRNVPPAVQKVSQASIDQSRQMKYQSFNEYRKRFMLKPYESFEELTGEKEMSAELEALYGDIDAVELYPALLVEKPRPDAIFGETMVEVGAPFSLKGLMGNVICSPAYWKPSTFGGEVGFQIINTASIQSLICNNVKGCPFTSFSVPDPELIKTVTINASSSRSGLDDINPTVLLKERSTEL

[26] = Toxicity in female Sprague-Dawley rat assessed as irritability at 7.5 mg/kg, po administered once daily for 4 weeks; assay type: organism-based; conditions: in vivo, 672 h
[27] = Toxicity in Sprague-Dawley rat assessed as normal spontaneous movement at 2.5 to 7.5 mg/kg, po administered once daily for 4 weeks; assay type: organism-based; conditions: in vivo, 672 h, dose 2.5-7.5 mg/kg
Mus musculus [28] = assay: Antipsychotic activity in amyloid beta(1 to 42) induced cognitive impairment in mouse model assessed as reduction in exploration time at 1 mg/kg, IG measured after 24 hrs by novel object recognition test; assay type: functional, organism-based
[29] = Toxicity in female Sprague-Dawley rat assessed as minimal corneal neovascularization at 2.5 to 7.5 mg/kg, po administered once daily for 4 weeks and measured after 4 weeks; assay type: organism-based; conditions: in vivo, 1344 h, dose 2.5-7.5 mg/kg, time 8 weeks
[30] = Toxicity in male Beagle dog assessed as change in gross necropsy at 0.75 to 2.5 mg/kg, IG administered once daily for 4 weeks and measured after 4 weeks; assay type: organism-based, Canis lupus familiaris; conditions: in vivo, po, 1344 h, dose 0.75-2.5 mg/kg, time 8 weeks
[31] = target: GABA-A receptor; anion channel (Homo sapiens) (UniProt P14867+P47870+P18507+P28472+P48169+Q99928+Q9UN88+P34903+O00591+O14764+Q8N1C3+P18505+P78334+P47869+P31644+Q16445); assay: Binding affinity to GABAA (unknown origin) at 10 uM by radioligand binding assay relative to control; assay type: protein-complex assay
[32] = target: Trace amine-associated receptor 1 (Mus musculus) (UniProt Q923Y8); assay: Agonist activity at mouse TAAR1 by measuring maximum efficacy relative to control; assay type: functional; conditions: filed as agonist
Chain of Trace amine-associated receptor 1 (Mus musculus) (Q923Y8 whole entry): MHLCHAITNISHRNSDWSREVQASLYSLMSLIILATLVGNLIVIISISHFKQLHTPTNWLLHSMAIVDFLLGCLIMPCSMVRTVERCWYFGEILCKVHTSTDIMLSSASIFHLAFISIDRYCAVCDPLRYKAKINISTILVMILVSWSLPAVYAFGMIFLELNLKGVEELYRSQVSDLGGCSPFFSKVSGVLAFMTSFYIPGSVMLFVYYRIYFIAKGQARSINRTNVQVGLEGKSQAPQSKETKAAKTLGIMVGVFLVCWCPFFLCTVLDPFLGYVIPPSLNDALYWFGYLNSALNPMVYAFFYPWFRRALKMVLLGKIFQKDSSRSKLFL

[33] = Metabolic stability in rat liver microsomes assessed as intrinsic clearance at 1 uM incubated for 60 mins by LC-MS/MS analysis; assay type: ADME, Microsome; conditions: read-out: CLH
Mus musculus [34] = assay: Antipsychotic activity in amyloid beta(1 to 42) induced cognitive impairment in mouse model assessed as increase in discrimination ratio of novel objects at 1 mg/kg, IG measured after 24 hrs by novel object recognition test; assay type: functional, organism-based
[35] = Toxicity in female Beagle dog assessed as change in organ ratios at 0.75 to 2.5 mg/kg, IG administered once daily for 4 weeks and measured after 4 weeks; assay type: organism-based, Canis lupus familiaris; conditions: in vivo, po, 1344 h, dose 0.75-2.5 mg/kg, time 8 weeks

Compound: c1cc2c(s1)[C@@H]1CNCCN1CC2
- CLint scaled at 1 µM [1]: < 29.7 mL/min/kg
- Activity [2]: Toxic
- Activity [3]: Non-toxic
- Activity [4]: Toxic
- Activity [5]: Non-toxic
- Activity [6]: Non-toxic
- Activity [7]: Non-toxic
- Activity [8]: 6.93%
- Activity [9]: Non-toxic
- IC50 (Cytochrome P450 2C19): > 50000 nM
- Activity [10]: 23.8%
- Ct [11]: 3832 nmol/kg
- Emax [12]: 65.5%
- Activity [13]: Toxic
- Activity [14]: Non-toxic
- EC50 [15]: 74.4 nM
- Activity [16]: Non-toxic
- Activity [17]: Non-toxic
- Activity [18]: Non-toxic
- Activity [19]: 36.5%
- Activity [20]: inactive
- Activity [21]: Non-toxic
- Activity [22]: Non-toxic
- Activity [23]: -12.2%
- Activity [24]: Non-toxic
- Activity [25]: 48.5%
- Activity [26]: Toxic
- Activity [27]: Non-toxic
- Activity (Mus musculus [28]): Active
- Activity [29]: Non-toxic
- Activity [30]: Non-toxic
- Activity [31]: -21.4%
- Emax [32]: 100%
- CLint scaled at 1 µM [33]: < 13.5 mL/min/kg
- Activity (Mus musculus [34]): Active
- Activity [35]: Non-toxic
